According to patent US20120172329A1, “PHYTOCHEMICAL COMPOSITIONS INCLUDING XANTHONES FOR ANTI-INFLAMMATORY, ANTI-CYTOKINE STORM, AND OTHER USES” (Thailand Excellence Center for Tissue Engineering, priority 2009, published 2012):

Columns and labels:
Format in all cases: cell-based
[1] = system: LPS induced peripheral blood mononuclear cells (PBMCs); experiment: IL-1 released by LPS induced PBMCs incubated with sesamin (ELISA), Example Six
Protocol: (§1) Experiments were conducted to evaluate the effect of particular phytochemical compositions provided by the present disclosure on quantity of IL-1 released by specified cells found within a body of a living organism. Cells used for the experiment described in this example are LPS induced peripheral blood mononuclear cells (PBMCs). It is understood by a person having ordinary skill in the art that the PBMCs may be substituted for other immune cells found within the body. It is also understood by a person having ordinary skill in the art that other inducing substances or chemicals besides LPS, for example viral antigens, may also be used for inducing the PBMCs.
(§2) To conduct the experiments of example six, PBMCs were isolated and prepared using methods or techniques known to a person having ordinary skill in the art. An exemplary method or techniques is the differential density gradient centrifugation technique, the steps or process steps of which is known to a person of ordinary skill in the art. In addition, LPS can be obtained from a commercial source, for example Sigma-Aldrich Co.
The PBMCs are cultured in 10% fetal calf serum in RPMI1640 medium. Seven cultures of PBMCs, i.e. culture 1 to culture 7, were prepared. The contents of each of cultures 1 to 7 were as follows:
(i) Culture 1: First control culture. Includes a predetermined volume of PBMCs (1×10^5 PBMCs/culture);
(ii) Culture 2: Second control culture. Includes the predetermined volume of PBMCs (1×10^5 PBMCs/culture) and LPS at a concentration of 20 ng/ml;
(iii) Culture 3: Includes the predetermined volume of the specified concentration of PBMCs, LPS at a concentration of 20 ng/ml, and a volume of phytochemical composition providing 0.1 uM of sesamin; […]
After a predetermined time period, quantity of IL-1 in each of cultures 1 to 7 was quantified using the ELISA technique (e.g., Biotrak Easy ELISA Aersham). The quantity of IL-1 detected by the ELISA technique in each of cultures 1 to 7 reflects the quantity of IL-1 released by the PBMCs of that culture.

[2] = system: LPS induced peripheral blood mononuclear cells (PBMCs); experiment: IL-2 gene expression relative to GAPDH in LPS induced PBMCs incubated with sesamin (RT-PCR), Example Seven; settings: culture 4, 1.0 ug/ml of sesamin; greatest increase
Protocol: as §1, with “IL-2 gene expression in” for “quantity of IL-1 released by”
as §2, with “seven,” for “six,”, “Co. […]” for “Co.”
(§3) The amount or level of IL-2 gene expression in the PBMCs was measured or determined using methods or techniques known to a person having ordinary skill in the relevant art. In example three, Real-Time PCR (RT-PCR) was used for quantifying the amount of IL-2 gene expression in the PBMCs.

[3] = system: lipopolysaccharide (LPS) induced synovial fibroblast (SF) cells; experiment: IL-1 gene expression relative to GAPDH in LPS induced synovial fibroblast cells incubated with sesamin (RT-PCR), Example Five
Protocol: Experiments were conducted to evaluate the effect of particular phytochemical compositions provided by the present disclosure on IL-1 gene expression in specified cells found within a body of a living organism. The cells used for the experiment described in […] are lipopolysaccharide (LPS) induced synovial fibroblast (SF) cells. The SF cells were isolated from synovium tissue (also referred to as synovial tissue) using a standard cell isolation technique or method that is known to a person of ordinary skill in the art. In addition, LPS is obtained from a commercial source, for example Sigma-Aldrich Co. It is understood by a person having ordinary skill in the art that the SF cells may be substituted with other immune cells found within the body, for example lymphocytes, monocytes, and macrophages. […]
as §3, with “IL-1” for “IL-2”, “SF cells” for “PBMCs”, “five,” for “three,”, “SF cells. IL-1beta or IL-1β specific primers were used during RT-PCR, thereby facilitating or effectuating the quantification of IL-1β gene expression in the SF cells. […]” for “PBMCs.”

## c1cc2c(cc1[C@H]1OC[C@H]3[C@@H]1CO[C@@H]3c1ccc3c(c1)OCO3)OCO2 [sesamin]
[1]; culture 3, 0.1 uM sesamin, vs control culture 1, minimum decrease
  decrease in quantity of IL-1: approximately 5%
[1]; culture 4, 0.5 uM sesamin, vs control culture 1, minimum decrease
  decrease in quantity of IL-1: approximately 5%
[1]; culture 7, 10 uM sesamin, vs control culture 2, maximum decrease
  decrease in quantity of IL-1: approximately 35%
[2]
  increase in IL-2 gene expression relative GAPDH: approximately 220%
[3]; culture 4, 0.025 mM sesamin, vs control culture 3, minimal decrease
  IL-1 gene expression relative to GAPDH decreased: approximately 20%
[3]; culture 9, 1.0 mM sesamin, vs control culture 2, maximal decrease
  IL-1 gene expression relative to GAPDH decreased: approximately 65%
